PubChem BioAssay AID248 (DTP/NCI, 2004)
Values joined by “and” are separate entries in the source; they are usually repeats but may differ in a detail not shown here. Equal values may be shown once. Inconclusive results and toxic doses are left out. Cut-off read from the data, not from the text of the source: active = T/C of 150% or more; inactive = T/C below 125%.

Test system: L1210 leukemia ip in BDF1 mice, survival T/C
Test: NCI In Vivo Anticancer Drug Screen. Data for tumor model L1210 Leukemia (intraperitoneal) in B6D2F1 (BDF1) mice
Details: endpoint: mean survival time, higher = longer survival
How it was run: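 Tumor was transplanted into mice, which were then dosed with test compound or vehicle alone. Survival was recorded for each group, and the treated figure was expressed relative to the control figure.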

[1] = dose: 50.0 mg/kg/injection, schedule: Q04DX002 (ip), vehicle: Klucel (hydroxypropylcellulose) (HPC)
[2] = dose: 100.0 mg/kg/injection, schedule: Q04DX002 (ip), vehicle: Klucel (hydroxypropylcellulose) (HPC)
[3] = dose: 200.0 mg/kg/injection, schedule: Q04DX002 (ip), vehicle: Klucel (hydroxypropylcellulose) (HPC)
[4] = dose: 100.0 mg/kg/injection, schedule: Q04DX002 (ip), vehicle: other
[5] = dose: 200.0 mg/kg/injection, schedule: Q04DX002 (ip), vehicle: other
[6] = dose: 75.0 mg/kg/injection, schedule: Q04DX003 (ip), vehicle: saline
[7] = dose: 400.0 mg/kg/injection, schedule: Q04DX002 (ip), vehicle: Klucel (hydroxypropylcellulose) (HPC)
[8] = dose: 100.0 mg/kg/injection, schedule: Q04DX003 (ip), vehicle: Klucel (hydroxypropylcellulose) (HPC)
[9] = dose: 200.0 mg/kg/injection, schedule: Q04DX003 (ip), vehicle: Klucel (hydroxypropylcellulose) (HPC)
[10] = dose: 400.0 mg/kg/injection, schedule: Q04DX003 (ip), vehicle: Klucel (hydroxypropylcellulose) (HPC)

Measured: T/C

CC(=O)Nc1c(OC(C)=O)ccc2cc(Br)ccc12
inactive: dose: 100.0 mg/kg/injection, schedule: Q01DX015 (ip), vehicle: saline 92 % of control | dose: 200.0 mg/kg/injection, schedule: Q01DX015 (ip), vehicle: saline 100 % of control | dose: 400.0 mg/kg/injection, schedule: Q01DX015 (ip), vehicle: saline 92 % of control | dose: 800.0 mg/kg/injection, schedule: Q01DX015 (ip), vehicle: saline 96 % of control

CCOC(=O)c1cc(C)nnc1C(=O)OCC
inactive: dose: 100.0 mg/kg/injection, schedule: Q01DX009 (ip), vehicle: saline with Tween-80 104 % of control | dose: 100.0 mg/kg/injection, schedule: Q01DX009 (ip), vehicle: saline 100 % of control | dose: 100.0 mg/kg/injection, schedule: Q04DX003 (ip), vehicle: saline with Tween-80 97 % of control | dose: 100.0 mg/kg/injection, schedule: Q04DX003 (ip), vehicle: saline 107 % of control | dose: 200.0 mg/kg/injection, schedule: Q01DX009 (ip), vehicle: saline with Tween-80 104 % of control | dose: 200.0 mg/kg/injection, schedule: Q01DX009 (ip), vehicle: saline 103 % of control | dose: 200.0 mg/kg/injection, schedule: Q04DX003 (ip), vehicle: saline with Tween-80 106 % of control | dose: 200.0 mg/kg/injection, schedule: Q04DX003 (ip), vehicle: saline 112 % of control | dose: 400.0 mg/kg/injection, schedule: Q01DX009 (ip), vehicle: saline with Tween-80 103 % of control | dose: 400.0 mg/kg/injection, schedule: Q01DX009 (ip), vehicle: saline 101 % of control | dose: 400.0 mg/kg/injection, schedule: Q04DX003 (ip), vehicle: saline with Tween-80 101 % of control | dose: 400.0 mg/kg/injection, schedule: Q04DX003 (ip), vehicle: saline 98 % of control

Cc1cnc2nc(N)[nH]c(=O)c2c1
inactive: dose: 100.0 mg/kg/injection, schedule: Q04DX003 (ip), vehicle: saline sonified 98 % of control | dose: 200.0 mg/kg/injection, schedule: Q04DX003 (ip), vehicle: saline sonified 95 % of control | dose: 400.0 mg/kg/injection, schedule: Q04DX003 (ip), vehicle: saline sonified 95 % of control

O=C(OCc1ccccc1CN1CCOCC1)c1cccc(Br)c1
inactive: dose: 25.0 mg/kg/injection, schedule: Q04DX002 (ip), vehicle: Klucel (hydroxypropylcellulose) (HPC) 93 % of control | [1] 95 % of control and 108 % of control | [2] 108 % of control | [3] 108 % of control and 92 % of control

COc1cc2[nH]c(=O)c3cccn3c(=O)c2cc1OC
inactive: dose: 50.0 mg/kg/injection, schedule: Q04DX002 (ip), vehicle: other 102 % of control | [4] 105 % of control | [5] 94 % of control

CCN(CC)CCNCc1ccccc1
inactive: dose: 25.0 mg/kg/injection, schedule: Q01DX003 (ip), vehicle: saline 99 % of control | dose: 50.0 mg/kg/injection, schedule: Q01DX003 (ip), vehicle: saline 97 % of control | dose: 75.0 mg/kg/injection, schedule: Q01DX003 (ip), vehicle: saline 99 % of control | [6] 97 % of control

O=C(Nc1ccccc1Cl)Oc1ccc(C2CCCCC2)cc1
inactive: [2] 103 % of control | [3] 98 % of control | [7] 98 % of control

Cc1ccc(C2=NN(c3ccccc3)C(c3ccccc3)C2NC2CCCCC2)cc1 (centres undefined)
inactive: dose: 100.0 mg/kg/injection, schedule: Q01DX009 (ip), vehicle: acetone 86 % of control | dose: 400.0 mg/kg/injection, schedule: Q01DX009 (ip), vehicle: acetone 100 % of control

N=c1c2c(N)nc(N)nc2c2ccccc2n1O
inactive: dose: 50.0 mg/kg/injection, schedule: Q04DX002 (ip), vehicle: saline 97 % of control | dose: 100.0 mg/kg/injection, schedule: Q04DX002 (ip), vehicle: saline 104 % of control | dose: 200.0 mg/kg/injection, schedule: Q04DX002 (ip), vehicle: saline 101 % of control

Cc1nc2c(nc1C)C(=O)C=CC2=O
inactive: dose: 5.0 mg/kg/injection, schedule: Q01DX001 (ip), vehicle: carboxymethylcellulose (CMC) 100 % of control | dose: 10.0 mg/kg/injection, schedule: Q01DX001 (ip), vehicle: carboxymethylcellulose (CMC) 96 % of control | dose: 20.0 mg/kg/injection, schedule: Q01DX001 (ip), vehicle: carboxymethylcellulose (CMC) 94 % of control

COc1ccc(C(=O)/C=C/c2ccc(C(C)C)cc2)cc1
inactive: [6] 94 % of control | dose: 150.0 mg/kg/injection, schedule: Q04DX003 (ip), vehicle: saline 100 % of control | dose: 300.0 mg/kg/injection, schedule: Q04DX003 (ip), vehicle: saline 89 % of control

O=Cc1cc2cccnc2s1
inactive: [8] 103 % of control | [9] 100 % of control | [10] 100 % of control

CN(C)C(=S)Oc1cc(Cl)c(Cl)cc1Cl
inactive: [8] 96 % of control | [9] 95 % of control | [10] 90 % of control

CC1=C2CCCC3(OCCO3)C2(C)CCC1=O (centres undefined)
inactive: [4] 98 % of control | [5] 109 % of control | dose: 400.0 mg/kg/injection, schedule: Q04DX002 (ip), vehicle: other 102 % of control

CC1(C)N=C(N)N=C(N)N1c1ccc(CC(CCc2ccccc2)C(=O)Nc2ccc(S(=O)(=O)F)cc2)cc1 (centres undefined)
inactive: dose: 100.0 mg/kg/injection, schedule: Q01DX001 (ip), vehicle: Klucel (hydroxypropylcellulose) (HPC) 90 % of control | dose: 200.0 mg/kg/injection, schedule: Q01DX001 (ip), vehicle: Klucel (hydroxypropylcellulose) (HPC) 97 % of control | dose: 400.0 mg/kg/injection, schedule: Q01DX001 (ip), vehicle: Klucel (hydroxypropylcellulose) (HPC) 90 % of control

C=CC[n+]1ccccc1C(c1ccccc1)c1ccccc1
inactive: dose: 6.25 mg/kg/injection, schedule: Q01DX009 (ip), vehicle: saline with Tween-80 108 % of control | dose: 12.5 mg/kg/injection, schedule: Q01DX009 (ip), vehicle: saline with Tween-80 97 % of control | dose: 12.5 mg/kg/injection, schedule: Q04DX003 (ip), vehicle: saline with Tween-80 95 % of control | dose: 25.0 mg/kg/injection, schedule: Q01DX009 (ip), vehicle: saline with Tween-80 92 % of control | dose: 25.0 mg/kg/injection, schedule: Q04DX003 (ip), vehicle: saline with Tween-80 103 % of control

COc1ccc(/C=C(/c2ccccc2)[N+](=O)[O-])cc1
inactive: dose: 176.0 mg/kg/injection, schedule: Q01DX001 (ip), vehicle: carboxymethylcellulose (CMC) 102 % of control | dose: 264.0 mg/kg/injection, schedule: Q01DX001 (ip), vehicle: carboxymethylcellulose (CMC) 89 % of control | dose: 400.0 mg/kg/injection, schedule: Q01DX001 (ip), vehicle: carboxymethylcellulose (CMC) 89 % of control | dose: 600.0 mg/kg/injection, schedule: Q01DX001 (ip), vehicle: carboxymethylcellulose (CMC) 89 % of control

O=C(CCBr)N1CCCN(C(=O)CCBr)CC1
inactive: dose: 106.0 mg/kg/injection, schedule: Q01DX Z (ip), vehicle: carboxymethylcellulose (CMC) 114 % of control | dose: 160.0 mg/kg/injection, schedule: Q01DX Z (ip), vehicle: carboxymethylcellulose (CMC) 119 % of control

CC[Si](CC)(CC)N1CC1
inactive: dose: 12.5 mg/kg/injection, schedule: Q01DX001 (ip), vehicle: carboxymethylcellulose (CMC) 106 % of control | dose: 25.0 mg/kg/injection, schedule: Q01DX001 (ip), vehicle: carboxymethylcellulose (CMC) 92 % of control | dose: 50.0 mg/kg/injection, schedule: Q01DX001 (ip), vehicle: carboxymethylcellulose (CMC) 92 % of control

Nc1ccc(N=Nc2ccccc2)cc1
inactive: [1] 105 % of control | [2] 105 % of control | [3] 97 % of control and 115 % of control | [7] 112 % of control

CC1CN=C(Cc2ccc(NC(=O)c3ccc(C(=O)Nc4ccc(CC5=NCC(C)N5)cc4)cc3)cc2)N1 (centres undefined)
inactive: dose: 3.75 mg/kg/injection, schedule: Q01DX Z (ip), vehicle: water 91 % of control | dose: 7.5 mg/kg/injection, schedule: Q01DX Z (ip), vehicle: water 101 % of control

C[n+]1ccc(Nc2ccc(NC(=O)c3ccc(N)cc3)cc2)cc1
inactive: dose: 12.5 mg/kg/injection, schedule: Q01DX009 (ip), vehicle: water 117 % of control | dose: 25.0 mg/kg/injection, schedule: Q01DX009 (ip), vehicle: water 107 % of control | dose: 50.0 mg/kg/injection, schedule: Q01DX009 (ip), vehicle: water 112 % of control
